From US8754113B2, “Oxadiazole derivative having endothelial lipase inhibitory activity” (Shionogi & Co., Ltd., priority 2009, dated 2014)

biological target: human endothelial lipase (EL) (Homo sapiens (Human), UniProt Q9Y5X9); test: Human endothelial lipase (EL) inhibitory activity using human HDL (NEFA release); format: biochemical; details: human HDL 2 mg/ml substrate, 4-hour reaction at 37° C., NEFA readout; read-out: IC50 (50% inhibitory concentration), EL inhibitory activity
Experimental: Evaluation Method of Human Endothelial Lipase (EL) Inhibitory Activity Using Human High-Density Lipoprotein (HDL)
After the present compound dissolved in DMSO was added to become 0.5% DMSO to the reaction buffer consisting of 20 mM tris hydrochloric acid (pH7.4), bovine serum albumin (0.5%), calcium chloride (4 mM), sodium chloride (150 mM) and human HDL (2 mg/ml), the EL enzyme was added (total volume was 20 μl).
After 4-hour reaction at 37° C., non-esterified fatty acid (NEFA) generated from HDL by EL was measured with a commercially available assay kit and the amount of NEFA was used as an index of enzyme activity.

Sequence of human endothelial lipase (EL) (Q9Y5X9 21-500): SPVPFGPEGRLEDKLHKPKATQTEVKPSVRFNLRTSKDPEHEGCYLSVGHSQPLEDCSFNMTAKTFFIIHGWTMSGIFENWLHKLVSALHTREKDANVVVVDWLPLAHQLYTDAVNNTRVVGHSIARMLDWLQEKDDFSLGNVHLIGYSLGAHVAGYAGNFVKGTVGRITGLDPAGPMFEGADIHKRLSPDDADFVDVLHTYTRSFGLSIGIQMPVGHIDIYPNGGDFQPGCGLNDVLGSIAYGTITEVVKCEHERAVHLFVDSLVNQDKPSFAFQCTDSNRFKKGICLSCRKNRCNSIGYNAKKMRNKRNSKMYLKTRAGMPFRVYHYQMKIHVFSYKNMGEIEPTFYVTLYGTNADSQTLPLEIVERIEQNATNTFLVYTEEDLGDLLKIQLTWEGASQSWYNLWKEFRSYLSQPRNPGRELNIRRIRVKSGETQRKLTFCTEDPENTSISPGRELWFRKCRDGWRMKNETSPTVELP

Row | IC50 | SMILES
1 | 2500 nM | N#CCNC(=O)Cc1nnc(Cc2cnc3cc(-c4ccccc4)ccc3n2)o1 [Compound I-2-215]
2 | 400 nM | O=C(Cc1nnc(Cc2nc3ccc(-c4ccccc4)cc3s2)o1)N1CC(O)C1 [Compound I-3-23]
3 | 78 nM | O=C(Cc1nnc(Cc2nc3c(-c4ccccc4)cccc3s2)o1)NC1(CO)CC1 [Compound I-3-12]
4 | 11 nM | N#CC1(NC(=O)Cc2nnc(Cc3nc4ccc(-c5ccccn5)cc4s3)o2)CC1 [Compound I-3-1]
5 | 27 nM | N#CC1(NC(=O)Cc2nnc(Cc3nc4ccc(-c5ccc(Cl)cn5)cc4s3)o2)CC1 [Compound I-3-146]
6 | 4 nM | N#CC1(NC(=O)Cc2nnc(Cc3nc4ccc(-c5ccc(Cl)s5)cc4s3)o2)CC1 [Compound I-3-56]
7 | 4 nM | Cn1cc(-c2ccc3sc(Cc4nnc(CC(=O)NC5(C#N)CC5)o4)nc3c2)cn1 [Compound I-3-4]
8 | 44 nM | N#CC1(NC(=O)Cc2nnc(Cc3nc4ccc(-c5ncc(F)cn5)cc4s3)o2)CC1 [Compound I-3-112]
9 | 28 nM | N#CC1(NC(=O)Cc2nnc(Cc3nc4ccc(-c5cc6ccccc6s5)cc4s3)o2)CC1 [Compound I-3-93]
10 | 9 nM | N#CC1(NC(=O)Cc2nnc(Cc3nc4c(-c5ccccc5)cccc4s3)o2)CC1 [Compound I-3-11]
11 | 9 nM | N#CC1(NC(=O)Cc2nnc(Cc3nc4ccc(-c5ccc(F)s5)cc4s3)o2)CC1 [Compound I-3-163]
12 | 52 nM | O=C(Cc1nnc(Cc2nc3ccc(-c4ccc(F)cc4)cc3s2)o1)NC1(CO)CC1 [Compound I-3-6]
13 | 8 nM | N#CC1(NC(=O)Cc2nnc(Cc3nc4ccc(C5=CCOCC5)cc4s3)o2)CC1 [Compound I-3-48]
14 | 46 nM | O=C(Cc1nnc(Cc2nc3ccc(-c4ccccc4)cc3s2)o1)NC1COC1 [Compound I-3-30]
15 | 69 nM | N#CC1(NC(=O)Cc2nnc(Cc3nc4ccc(-c5ncccn5)cc4s3)o2)CC1 [Compound I-3-145]
16 | 12 nM | N#CCNC(=O)Cc1nnc(Cc2nc3c(-c4ccccc4)cccc3s2)o1 [Compound I-2-197]
17 | 14 nM | N#CC1(NC(=O)Cc2nnc(Cc3nc4ccc(Cc5ccc(F)cc5)cc4s3)o2)CC1 [Compound I-3-41]
18 | 15 nM | Cn1ccc(-c2ccc3nc(Cc4nnc(CC(=O)NC5(C#N)CC5)o4)sc3c2)n1 [Compound I-2-198]
19 | 2 nM | CC(C#N)NC(=O)Cc1nnc(Cc2nc3ccc(-c4ccccc4)cc3s2)o1 (stereo not drawn) [Compound I-3-37]
20 | 23000 nM | N#CCNC(=O)Cc1nnc(Cc2ccc(-c3ccccc3)cn2)o1 [Compound I-2-216]
21 | 250 nM | N#CCNC(=O)Cc1nnc(C(F)(F)c2nc3ccc(-c4ccccc4)cc3s2)o1 [Compound I-3-21]
22 | 190 nM | N#CCNC(=O)Cc1nnc(Cc2ccc3cc(-c4ccccc4)ccc3n2)o1 [Compound I-2-204]

The next lines start with the compound.

Row | SMILES | IC50
23 | N#CCCc1nnc(Cc2nc3ccc(-c4ccccc4)cc3s2)o1 [Compound I-1-27] | 85 nM
24 | O=C(NCCc1nnc(Cc2nc3ccc(-c4ccccc4)cc3s2)o1)C1CC1 [Compound I-1-7] | 19 nM
25 | Cn1cc(-c2ccc3nc(Cc4nnc(CC(=O)NC5(C#N)CC5)o4)sc3c2Cl)cn1 [Compound A-21] | 65 nM
26 | NS(=O)(=O)NCc1nnc(Cc2nc3ccc(-c4ccccc4)cc3s2)o1 [Compound I-1-85] | 6 nM
27 | N#CCNC(=O)Cc1nnc(Cc2nc3ccc(-c4ccccc4)cc3s2)o1 [Compound I-1-3] | 26 nM
28 | O=C(Cc1nnc(Cc2nc3ccc(-c4ccccc4)cc3s2)o1)N1CCOCC1 [Compound I-1-82] | 52 nM
29 | N#CC1(NC(=O)Cc2nnc(Cc3nc4ccc(-c5ccccc5)c(Cl)c4s3)o2)CC1 [Compound A-17] | 41 nM
30 | N#CCNC(=O)Cc1nnc(Cc2nc3c(Br)cccc3s2)o1 [Compound I-2-196] | 36 nM
31 | COc1cc(-c2cnn(C)c2)cc2sc(Cc3nnc(CC(=O)NC4(C#N)CC4)o3)nc12 [Compound A-25] | 42 nM
32 | CS(=O)(=O)NCc1nnc(Cc2nc3ccc(-c4ccccc4)cc3s2)o1 [Compound I-1-23] | 73 nM
33 | O=C(O)CCc1nnc(Cc2nc3ccc(-c4ccccc4)cc3s2)o1 [Compound I-1-9] | 260 nM
34 | Cc1ccc(-c2ccc3nc(Cc4nnc(CC(=O)NC5(C#N)CC5)o4)sc3n2)s1 [Compound A-14] | 160 nM
35 | N#CC1(NC(=O)Cc2nnc(Cc3nc4ccc(-c5ccc(Cl)cc5)c(F)c4s3)o2)CC1 [Compound A-13] | 22 nM
36 | O=C(Cc1nnc(Cc2nc3ccc(-c4ccccc4)cc3s2)o1)Nc1ccccc1 [Compound I-1-83] | 5 nM
37 | O=C(Cc1nnc(Cc2nc3ccc(-c4ccccc4)cc3s2)o1)NCCO [Compound I-1-31] | 83 nM
38 | N#CCNC(=O)Cc1nnc(Cc2nc3cc(-c4ccccc4)ccc3o2)o1 [Compound I-1-43] | 390 nM
39 | N#CC1(NC(=O)Cc2nnc(Cc3nc4cnc(-c5ccccc5)cc4s3)o2)CC1 [Compound A-10] | 8 nM
40 | Cn1cc(-c2ccc3nc(Cc4nnc(CC(=O)NC5(C#N)CC5)o4)sc3n2)cn1 [Compound A-19] | 110 nM
41 | O=C(O)Cc1nnc(Cc2nc3ccc(-c4ccccc4)cc3s2)o1 [Compound I-1-2] | 120 nM
42 | Cc1ccc(-c2ccc3nc(Cc4nnc(CC(=O)NC5(C#N)CC5)o4)sc3c2F)s1 [Compound A-9] | 11 nM
